We go through 14 compounds from patent publication US9309222B2, “Phenyl linked quinolinyl modulators of RORγt” (Janssen Pharmaceutica NV, priority 2012, dated 2016).

One assay has as its target T1, human RORγt LBD (Homo sapiens, UniProt P51449).
T1 construct: expressed in transfected cells
T1 sequence (P51449 258-518): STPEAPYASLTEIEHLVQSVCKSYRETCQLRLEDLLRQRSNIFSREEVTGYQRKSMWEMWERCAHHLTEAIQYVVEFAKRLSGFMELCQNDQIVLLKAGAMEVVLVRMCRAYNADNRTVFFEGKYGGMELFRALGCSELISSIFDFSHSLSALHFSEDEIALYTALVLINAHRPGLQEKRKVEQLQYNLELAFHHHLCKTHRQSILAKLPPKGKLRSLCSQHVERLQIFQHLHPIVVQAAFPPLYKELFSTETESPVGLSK
Description: RORγt reporter assay (GAL4-RORγt LBD luciferase in HEK293T cells). The assay is classed as cell-based. The conditions noted are these: for RORγt reporter Assay, % inhibition @ 6 μM / pIC50: HEK293T cells; for RORγt reporter Assay, % inhibition @ 6 μM: 6 μM compound; for pIC50: 24 hours compound treatment; for inhibition at 6 µM: HEK-293T, read-out: RORγt reporter Assay, % inhibition @ 6 μM, HEK293T cells, 6 μM compound. In outline:
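HEK293T cells transiently co-transfected with pBIND (GAL4 DBD fused to wild-type human RORγt LBD, plus SV40-driven renilla luciferase) and pGL4.31 GAL4-responsive firefly luciferase reporter. Plated in phenol-red-free DMEM with 5% lipid-reduced FCS and treated with compound for 24 h. Firefly/renilla luminescence ratio plotted against compound concentration.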
For orientation: Reporter assays use an easily measured gene product as a stand-in for the process of interest.

For assay [1], the target named is T2, human RORγt ligand binding domain (RORγt LBD) (Homo sapiens, UniProt P51449).
T2 construct: His-tag (N); TurboTEV protease cleavage site (ENLYFQG) (N); made in house; host or cells: E. coli (pHIS1, modified pET vector)
T2 sequence (P51449 with tags, fused parts or gaps): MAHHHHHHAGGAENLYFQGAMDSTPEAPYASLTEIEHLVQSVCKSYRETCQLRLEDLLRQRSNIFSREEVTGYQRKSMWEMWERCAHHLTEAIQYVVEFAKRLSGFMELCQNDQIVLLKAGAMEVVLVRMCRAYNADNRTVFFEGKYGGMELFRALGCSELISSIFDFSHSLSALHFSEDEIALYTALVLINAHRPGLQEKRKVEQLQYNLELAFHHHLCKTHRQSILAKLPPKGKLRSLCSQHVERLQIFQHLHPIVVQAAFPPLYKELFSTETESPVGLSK
Description: RORγt ThermoFluor assay (thermal shift, ligand binding affinity). The conditions noted are these: estimated from concentration response of thermal shift. The method, boiled down: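 Thermal shift of 0.065 mg/mL RORγt with 60 μM 1,8-ANS in 100 mM Hepes pH 7.0, 10 mM NaCl, 2.5 mM GSH, 0.002% Tween-20. Compounds in 1:2 series from 10 mM DMSO stock. Dye fluorescence (500 nm emission) tracked versus temperature; ΔTm used to derive KD.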

Assay [2] has as its system IL-17 production by CD4 T cells. Description: Human Th17 assay (IL-17 production by CD4 T cells under Th17 differentiation conditions). To be noted: IL-17 in supernatant after 3 days. The class given is cell-based. How it is done:
The human Th17 assay tests the effect of RORγt modulatory compounds on IL-17 production by CD4 T cells under conditions which favor Th17 differentiation. Total CD4^+ T cells were isolated from the peripheral blood mononuclear cells (PBMC) of healthy donors using a CD4^+ T cell isolation kit II, following the manufacturer's instructions (Miltenyi Biotec). […] 50 μL of compound at titrated concentrations in DMSO were added into each well at final DMSO concentration at 0.2%. Cells were incubated for 1 hour, then 50 μL of Th17 cell differentiation medium was added to each well. The final concentrations of antibodies and cytokines (R&D Systems) in differentiation medium were: 3×10^6/mL anti-CD3/CD28 beads (prepared using human T cell activation/expansion kit, Miltenyi Biotec), 10 μg/mL anti-IL4, 10 μg/mL anti-IFNγ, 10 ng/mL IL113, 10 ng/mL IL23, 50 ng/mL IL6, 3 ng/mL TGFβ and 20 U/mL IL2. Cells were cultured at 37° C. and 5% CO2 for 3 days. Supernatants were collected and the accumulated IL-17 in culture was measured by using MULTI-SPOT® Cytokine Plate following manufacture's instruction (Meso Scale Discovery). The plate was read using Sector Imager 6000, and IL-17 concentration was extrapolated from the standard curve. The IC50s were determined by GraphPad.

pIC50, pKd: −log10 of the molar value. Several values for one entry are separate records, joined by “and”; a condition that tells them apart may be missing. Equal values may be shown once.

Consider `Cc1cc(C(O)(c2ccc(F)cc2)c2cncn2C)cc2c(C#N)c(-c3cccc(F)c3)c(C#N)nc12` (single isomer, unassigned) [Example 175c, 3-(3-Fluorophenyl)-6-((4-fluorophenyl)(hydroxy)(1-methyl-1H-imidazol-5-yl)methyl)-8-methylquinoline-2,4-dicarbonitrile], for which, at human RORγt LBD, the “RORγt reporter Assay, % inhibition @ 6 μM” value was determined as 95% and the negative-log IC50 (pIC50) is 6.85. For the same compound, the negative-log Kd (pKd) in assay [1] is 7.19. The compound also gave a negative-log IC50 (pIC50) in assay [2] (Homo sapiens, CD4+ T, 72 h) of 6.96.

On to `Cc1cc(C(O)(c2ccc(C(F)(F)F)nc2)c2cncn2C)cc2c(C#N)c(-c3cccc(F)c3)c(C#N)nc12` (single isomer, unassigned) [Example 176c, 3-(3-Fluorophenyl)-6-(hydroxy(1-methyl-1H-imidazol-5-yl)(6-(trifluoromethyl)pyridin-3-yl)methyl)-8-methylquinoline-2,4-dicarbonitrile], for which, on human RORγt LBD, the “RORγt reporter Assay, % inhibition @ 6 μM” value was 95% and the pIC50 is 6.49. Besides, the negative-log Kd (pKd) in assay [1] is 7.17. The compound also showed a negative-log IC50 (pIC50) in assay [2] (Homo sapiens, CD4+ T, 72 h) of 6.51.

On to `COc1nc2c(C)cc(C(O)(c3ccc(C(F)(F)F)nc3)c3cncn3C)cc2c(Cl)c1-c1cccc(F)c1` (single isomer, unassigned) [Example 177b, (4-Chloro-3-(3-fluorophenyl)-2-methoxy-8-methylquinolin-6-yl)(1-methyl-1H-imidazol-5-yl)(6-(trifluoromethyl)pyridin-3-yl)methanol], for which the figures for the negative-log IC50 (pIC50) (on human RORγt LBD; in assay [2]) were 6.40 and 6.70, respectively. The inhibition at 6 µM on human RORγt LBD came out at 83%. For the same compound, the negative-log Kd (pKd) in assay [1] is 7.66.

Consider `COc1nc2c(C)cc(C(O)(c3ccc(C(F)(F)F)nc3)c3cncn3C)cc2c(Cl)c1-c1cccc(F)c1` (single isomer, unassigned) [Example 177c, (4-Chloro-3-(3-fluorophenyl)-2-methoxy-8-methylquinolin-6-yl)(1-methyl-1H-imidazol-5-yl)(6-(trifluoromethyl)pyridin-3-yl)methanol], for which, on human RORγt LBD, the “RORγt reporter Assay, % inhibition @ 6 μM” value was found to be 98% and the pIC50 was 6.44. In addition, in assay [1], the pKd is 5.89. In addition, the pIC50 in assay [2] is 5.60.

Take `COc1nc2c(C)cc(C(O)(c3ccc(F)cc3)c3cncn3C)cc2c(Cl)c1-c1cccc(F)c1` (single isomer, unassigned) [Example 178c, (4-Chloro-3-(3-fluorophenyl)-2-methoxy-8-methylquinolin-6-yl)(4-fluorophenyl)(1-methyl-1H-imidazol-5-yl)methanol]: on human RORγt LBD, the “RORγt reporter Assay, % inhibition @ 6 μM” value was found to be 96% and the pIC50 is 7.46. Moreover, the pKd in assay [1] was 7.54. In assay [2] (Homo sapiens, CD4+ T, 72 h), this compound had a pIC50 of 7.35.

For `COc1nc2c(C)cc(C(O)(c3ccc(C(F)(F)F)nc3)c3cncn3C)cc2c(C#N)c1-c1cccc(F)c1` (single isomer, unassigned) [Example 179c, 3-(3-Fluorophenyl)-6-(hydroxy(1-methyl-1H-imidazol-5-yl)(6-(trifluoromethyl)pyridin-3-yl)methyl)-2-methoxy-8-methylquinoline-4-carbonitrile], the “RORγt reporter Assay, % inhibition @ 6 μM” value on human RORγt LBD worked out at 96%. For the same compound, the negative-log IC50 (pIC50) was 6.32 on human RORγt LBD and around 6.00 in assay [2] (Homo sapiens, CD4+ T, 72 h). Also, the pKd in assay [1] was 7.20.

Regarding `COc1nc2c(C)cc(C(O)(c3ccc(F)cc3)c3cncn3C)cc2c(C#N)c1-c1cccc(F)c1` (single isomer, unassigned) [Example 180b, 3-(3-Fluorophenyl)-6-((4-fluorophenyl)(hydroxy)(1-methyl-1H-imidazol-5-yl)methyl)-2-methoxy-8-methylquinoline-4-carbonitrile], the negative-log IC50 (pIC50) on human RORγt LBD was 5.72 and ~5.52; in assay [2] it was around 5.30. In addition, the inhibition at 6 µM on human RORγt LBD was 80%. For the same compound, in assay [1], the negative logarithm of the Kd (pKd) was 4.17.

In the case of `COc1nc2c(C)cc(C(O)(c3ccc(F)cc3)c3cncn3C)cc2c(C#N)c1-c1cccc(F)c1` (single isomer, unassigned) [Example 180c, 3-(3-Fluorophenyl)-6-((4-fluorophenyl)(hydroxy)(1-methyl-1H-imidazol-5-yl)methyl)-2-methoxy-8-methylquinoline-4-carbonitrile], on human RORγt LBD, the “RORγt reporter Assay, % inhibition @ 6 μM” value is given as 99% and the negative-log IC50 (pIC50) was 6.77. Further, the pKd in assay [1] was 7.03. In assay [2], this compound had a pIC50 of 7.01.

As for `CC(=O)N1CCC(C(O)(c2ccc3nc(C(F)(F)F)c(-c4ccccc4)c(C(F)(F)F)c3c2)c2cncn2C)CC1` (single isomer, unassigned) [Example 181b, 1-(4-(Hydroxy(1-methyl-1H-imidazol-5-yl)(3-phenyl-2,4-bis(trifluoromethyl)quinolin-6-yl)methyl)piperidin-1-yl)ethanone], the pIC50 is 7.21 on human RORγt LBD and 6.92 in assay [2] (Homo sapiens, CD4+ T, 72 h). Also, the inhibition at 6 µM at human RORγt LBD is 99%. Further, the negative-log Kd (pKd) in assay [1] is 7.57.

On to `CC(=O)N1CCC(C(O)(c2ccc3nc(C(F)(F)F)c(-c4ccccc4)c(C(F)(F)F)c3c2)c2cncn2C)CC1` (single isomer, unassigned) [Example 181c, 1-(4-(Hydroxy(1-methyl-1H-imidazol-5-yl)(3-phenyl-2,4-bis(trifluoromethyl)quinolin-6-yl)methyl)piperidin-1-yl)ethanone], for which the “RORγt reporter Assay, % inhibition @ 6 μM” value at human RORγt LBD is recorded as 105%. Also, the negative logarithm of the IC50 (pIC50) against human RORγt LBD was 7.28; in assay [2] it was 6.80. Moreover, the pKd in assay [1] is 7.64.

Take `COc1nc2c(C)cc(C(O)(c3ccc(C(F)(F)F)nc3)c3cncn3C)cc2c(Cl)c1-c1ccc(OC(F)(F)F)cc1` (single isomer, unassigned) [Example 183b, (4-Chloro-2-methoxy-8-methyl-3-(4-(trifluoromethoxy)phenyl)quinolin-6-yl)(1-methyl-1H-imidazol-5-yl)(6-(trifluoromethyl)pyridin-3-yl)methanol]: on human RORγt LBD, the “RORγt reporter Assay, % inhibition @ 6 μM” value was found to be 34% and the pIC50 is below 5.22. The negative logarithm of the Kd (pKd) in assay [1] is 8.43. In assay [2] (Homo sapiens, CD4+ T, 72 h), this compound gave a pIC50 of 5.92.

Regarding `COc1nc2c(C)cc(C(O)(c3ccc(C(F)(F)F)nc3)c3cncn3C)cc2c(Cl)c1-c1ccc(OC(F)(F)F)cc1` (single isomer, unassigned) [Example 183c, (4-Chloro-2-methoxy-8-methyl-3-(4-(trifluoromethoxy)phenyl)quinolin-6-yl)(1-methyl-1H-imidazol-5-yl)(6-(trifluoromethyl)pyridin-3-yl)methanol], the “RORγt reporter Assay, % inhibition @ 6 μM” value at human RORγt LBD is on record as 73%. The negative-log IC50 (pIC50) is 6.44 on human RORγt LBD and 6.06 in assay [2]. In assay [1], the negative-log Kd (pKd) is 6.72.

With `Cc1cc(C(O)(c2ccc(C(F)(F)F)nc2)c2cncn2C)cc2c(C#N)c(-c3ccc(F)cc3)c(C#N)nc12` (single isomer, unassigned) [Example 184c, 3-(4-Fluorophenyl)-6-(hydroxy(1-methyl-1H-imidazol-5-yl)(6-(trifluoromethyl)pyridin-3-yl)methyl)-8-methylquinoline-2,4-dicarbonitrile], at human RORγt LBD, the “RORγt reporter Assay, % inhibition @ 6 μM” value came to 97% and the pIC50 was 6.59. Further, the pKd in assay [1] is 7.39. Also, in assay [2] (Homo sapiens, CD4+ T, 72 h), the pIC50 is 6.15.

On to `Cn1cncc1C(O)(c1ccc2nc(C(F)(F)F)c(-c3ccccc3)c(C(F)(F)F)c2c1)c1ccccn1` (single isomer, unassigned) [Example 185b, (1-Methyl-1H-imidazol-5-yl)(3-phenyl-2,4-bis(trifluoromethyl)quinolin-6-yl)(pyridin-2-yl)methanol], for which, on human RORγt LBD, the pIC50 was 6.89 and the inhibition at 6 µM was found to be 103%. The negative-log Kd (pKd) in assay [1] was 7.54. Also, the pIC50 in assay [2] (Homo sapiens, CD4+ T, 72 h) is 7.02.

Usually pIC50 stands for the IC50 on a negative log10 scale, so that one unit is a factor of ten. The low end stands for a large IC50, the high end for a small IC50. The pKd is the Kd on a negative log10 scale, so that one unit is a factor of ten. Usually inhibition stands for the change of the read-out against control, counted positive when it falls.
